From US20200155687A1, “METHODS OF TREATMENT USING AN A[…]” (Shire Pharmaceuticals Inc., priority 2017, published 2020)

Experiments:
rats = experiment: motor activity in rats after PO, IV or IN administration; type: in vivo; details: rat; for increase in activity: IV; for activity levels compared to controls: single IN dose
Description: The pharmacodynamic properties of 1-homoarginine-d-amphetamine dihydrochloride in rats were evaluated and compared to lisdexamfetamine dimesylate and vehicle control after oral (PO), intravenous (IV) and intranasal (IN) administration.
The activity levels of rats after a single IN dose of 1-homoarginine-d-amphetamine dihydrochloride (5.25 mg/kg) was not increased when compared to controls.

α2-adrenergic receptor [1] = experiment: general side-effect profile panel (receptors, transporters, ion channels, enzymes); type: binding
Description: (§1) In a general side-effect profile panel using a wide range of receptors, transporters, ion channels, enzymes and other biological targets that could directly or indirectly influence dopaminergic or noradrenergic neurotransmission in the brain, initial results indicated some 1-homoarginine-d-amphetamine dihydrochloride activity at the α2-adrenergic receptor. However, after completion of a confirmatory half maximal inhibitory concentration (IC50) assay, it was determined that it is unlikely that 1-homoarginine-d-amphetamine dihydrochloride would cause any side-effects related to any of the common enzymes/receptors.

[2] = biological target: human recombinant norepinephrine transporter (Homo sapiens, UniProt P23975); experiment: in vitro radioligand binding study, norepinephrine transporter; details: intact prodrug, up to 10 μM
Sequence of human recombinant norepinephrine transporter (P23975 whole entry): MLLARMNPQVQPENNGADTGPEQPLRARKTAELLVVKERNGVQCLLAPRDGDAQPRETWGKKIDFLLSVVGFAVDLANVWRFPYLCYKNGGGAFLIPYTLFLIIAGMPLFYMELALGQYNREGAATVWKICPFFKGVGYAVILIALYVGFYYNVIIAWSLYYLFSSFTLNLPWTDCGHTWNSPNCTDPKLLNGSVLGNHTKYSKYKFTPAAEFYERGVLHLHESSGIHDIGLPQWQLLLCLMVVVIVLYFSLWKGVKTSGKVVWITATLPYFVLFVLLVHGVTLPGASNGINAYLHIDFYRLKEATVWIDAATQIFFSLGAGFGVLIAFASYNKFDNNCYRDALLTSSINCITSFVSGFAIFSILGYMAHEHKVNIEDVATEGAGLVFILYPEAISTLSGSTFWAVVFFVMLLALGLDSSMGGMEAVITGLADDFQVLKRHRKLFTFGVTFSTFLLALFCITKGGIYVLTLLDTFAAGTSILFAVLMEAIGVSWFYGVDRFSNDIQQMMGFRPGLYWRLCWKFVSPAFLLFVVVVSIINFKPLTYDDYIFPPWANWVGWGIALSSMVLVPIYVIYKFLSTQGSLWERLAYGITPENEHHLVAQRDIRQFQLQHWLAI
Description: (§2) Therefore, there is no direct interaction by 1-homoarginine-d-amphetamine dihydrochloride with primary targets critical for the pharmacological effects of d-amphetamine.

α2-adrenergic receptor [3] = experiment: confirmatory half maximal inhibitory concentration (IC50) assay; type: binding; details: after completion of confirmatory IC50 assay
Description: as §1

[4] = biological target: human recombinant dopamine transporter (Homo sapiens, UniProt Q01959); experiment: in vitro radioligand binding study, dopamine transporter; details: intact prodrug, up to 10 μM
Sequence of human recombinant dopamine transporter (Q01959 whole entry): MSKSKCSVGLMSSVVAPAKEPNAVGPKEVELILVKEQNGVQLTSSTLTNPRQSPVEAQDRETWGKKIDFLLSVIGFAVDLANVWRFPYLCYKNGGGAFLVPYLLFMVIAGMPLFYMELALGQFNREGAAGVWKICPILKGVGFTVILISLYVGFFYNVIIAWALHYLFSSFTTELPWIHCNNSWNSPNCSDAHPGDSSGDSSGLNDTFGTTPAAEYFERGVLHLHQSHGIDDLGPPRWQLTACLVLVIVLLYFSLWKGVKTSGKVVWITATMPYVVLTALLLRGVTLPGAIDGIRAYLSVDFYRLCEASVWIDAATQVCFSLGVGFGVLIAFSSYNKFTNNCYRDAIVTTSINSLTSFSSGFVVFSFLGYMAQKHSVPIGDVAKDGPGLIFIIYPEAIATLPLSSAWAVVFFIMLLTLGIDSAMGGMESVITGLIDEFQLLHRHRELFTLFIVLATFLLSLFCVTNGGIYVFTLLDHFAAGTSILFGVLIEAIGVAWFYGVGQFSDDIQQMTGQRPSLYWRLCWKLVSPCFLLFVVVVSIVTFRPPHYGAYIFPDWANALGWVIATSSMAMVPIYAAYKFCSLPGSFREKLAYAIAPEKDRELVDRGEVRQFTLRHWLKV
Description: as §2

Row | Compound | increase in activity (rats; 5.25 mg/kg) | motor activity compared to the vehicle control group (rats; PO, 4.37 mg/kg) | activity levels versus lisdexamfetamine (4.21 mg/kg) comparator group (rats; PO, 4.37 mg/kg, initial three hours of the study) | activity levels compared to controls (rats; 5.25 mg/kg) | activity at the α2-adrenergic receptor (initial results) (α2-adrenergic receptor [1]) | activity at the norepinephrine transporter site [2] | likelihood of side-effects related to any of the common enzymes/receptors (α2-adrenergic receptor [3]) | activity at the dopamine transporter site [4] | increase in activity (rats; 5.05 mg/kg) [%] | activity levels compared to controls (rats; 5.05 mg/kg)
1 | C[C@@H](Cc1ccccc1)NC(=O)[C@@H](N)CCCCNC(=N)N.Cl [1-homoarginine-d-amphetamine dihydrochloride] | approximately 15% | induced an increase in motor activity | in general lower | not increased | some | no significant activity | unlikely | no significant activity |  | 
2 | lisdexamfetamine dimesylate [reference compound] |  |  |  |  |  |  |  |  | 60 | A similar result
